# Measured values: patent publication US20240390335A1, “PHARMACEUTICAL COMPOSITION CONTAINING BETA-LACTAM COMPOUND AND USE THEREOF” (priority 2021, published 2024)
# Read-outs that look alike come from different tables or passages of the source. Peptide text beside a SMILES is read from it. * marks the point of attachment. βNA = c1ccc2cc(N*)ccc2c1
# What was measured:
# Format in all cases: cell-based
# Pseudomonas aeruginosa [1] = assay: MIC assay of individual compounds (microdilution, CLSI/NCCLS)
# Method: (§1) Mueller-Hinton broth (MH broth) medium, Trypticase Soy Broth (TSB Broth) medium, purchased from BD Difco, Cockeysville, MD, USA; • 96-well plate: Corning Costar, Cambridge, MA, USA; • Test method: the antibacterial activities were tested by the microdilution method according to the CLSI/NCCLS standard.
# (§2) (1) Preparation of the test samples: 4 mg of each sample was taken, and was prepared into a test solution at 1,024 μg/mL with MH broth, and the test solution was diluted two-fold in a 96-well plate to prepare solutions of a series of gradient concentrations, the volume in each well being 90 μL.
# (§3) (2) Preparation of a bacteria solution: The test strains were amplified by Trypticase Soy Broth (TSB Broth) according to the CLSI/NCCLS standard.
# (§4) (3) Addition of the samples: a bacteria solution with a concentration of 6×10^5 cfu/mL was prepared, and 10 μL of the bacteria solution was pipetted into each well of the 96-well plate. Three parallel experiments were set up for each concentration and the results were averaged. To the negative control group, 10 μL of the bacterial solution and 90 μL MH broth were added.
# (§5) (4) Incubation: the 96-well plate was placed in a 37° C. constant-temperature incubator for 18 hours, and the growth of the strains was observed. The drug concentration in the well with no microbial growth was recorded as the MIC.
# Acinetobacter baumannii [2] = assay: as above
# Method: as §1, §2, §3, §4, §5
# [3] = tested on: Acinetobacter baumannii or Pseudomonas aeruginosa; assay: MIC assay of individual compounds, summary over non-fermenter strains; conditions: various Acinetobacter baumannii or Pseudomonas aeruginosa strains
# Method: as §1, §2, §3, §4, §5
# Acinetobacter baumannii [4] = assay: Combined in vitro use, checkerboard dilution method
# Method: (§6) Mueller-Hinton broth (MH broth) medium, Trypticase Soy Broth (TSB Broth) medium, purchased from BD Difco, Cockeysville, MD, USA; • 96-well plate: Corning Costar, Cambridge, MA, USA; • Test method: the checkerboard dilution method was used for determination.
# (§7) (1) Preparation of the test samples: 4 mg of each sample was taken and was prepared into a test solution at 2,048 μg/mL with MH broth, and the test solution was diluted two-fold in a 96-well plate to prepare solutions of a series of gradient concentrations.
# as §3
# (§8) (3) Addition of the samples: 10 μL of the bacteria solution with a concentration of 6×10^5 CFU/mL was pipetted into each well of the 96-well plate. Each well contained the antibacterial drugs (the compound of formula (I-1) and the compound of formula (I-2)) diluted two-fold with broth and the aforementioned lactamase inhibitor or efflux pump inhibitor. […] The samples were mixed thoroughly. Three parallel experiments were set up for each concentration and the results were averaged. To the negative control group, 10 μL of the bacterial solution and 90 μL MH broth were added.
# (§9) (4) Incubation: the 96-well plate was placed in a 37° C. constant-temperature incubator for 18 hours, and the growth of the strains was observed.
# (§10) (5) Calculation: The in vitro effect of each drug-inhibitor combination was analyzed by calculating the FICI value: FICI=(MIC of drug A in the combination/MIC of drug A alone)+ (MIC of drug B in the combination/MIC of drug B alone).
# (§11) In order to ensure the reliability of the data, three repeated tests were conducted on different dates and the results were averaged.
# [5] = tested on: drug-resistant Enterobacteriaceae strains; assay: Checkerboard combination, summary over Enterobacteriaceae strains; conditions: combined with avibactam; all of the 4 drug-resistant Enterobacteriaceae strains tested
# Method: as §6, §7, §3
# as §8, with “To the negative control group, 10 μL of the bacterial solution and 90 μL MH broth were added.” left out
# (5) Calculation: The in vitro effect of each drug-inhibitor combination was analyzed by calculating the FICI value: FICI=(MIC of drug A in the combination/MIC of drug A alone)+ (MIC of drug B in the combination/MIC of drug B alone). […]
# Klebsiella pneumoniae [6] = assay: MIC assay of individual compounds (microdilution, CLSI/NCCLS)
# Method: as §1, §2, §3, §4, §5
# Escherichia coli [7] = assay: as above
# Method: as §1, §2, §3, §4, §5
# Enterobacter cloacae = assay: as above
# Method: as §1, §2, §3, §4, §5
# Klebsiella pneumoniae [8] = assay: Combined in vitro use, checkerboard dilution method
# Method: as §6, §7, §3, §8, §9, §10, §11
# Pseudomonas aeruginosa [9] = assay: as above
# Method: as §6, §7, §3, §8, §9, §10, §11
# [10] = tested on: drug-resistant Enterobacteriaceae; assay: MIC assay of individual compounds, summary over Enterobacteriaceae strains; conditions: against the aforementioned Enterobacteriaceae
# Method: as §1, §2, §3, §4, §5
# Escherichia coli [11] = assay: Combined in vitro use, checkerboard dilution method; conditions: compound of formula (I-1) combined with vaborbactam; Escherichia coli CCPM(A)-P-071301
# Method: as §6, §7, §3, §8, §9, §10, §11
# [12] = individual compound, Pseudomonas aeruginosa PAO1(CCPM(A)-P-09000032), read-out: MIC
# [13] = ATCC17978, individual compound, Acinetobacter baumannii ATCC 17978, read-out: MIC
# [14] = ATCC19606, individual compound, Acinetobacter baumannii ATCC 19606, read-out: MIC
# [15] = Klebsiella pneumoniae, ATCC2146, individual compound, Klebsiella pneumoniae ATCC 2146, read-out: MIC
# [16] = Klebsiella pneumoniae, ATCC700603, individual compound, Klebsiella pneumoniae ATCC 700603, read-out: MIC
# [17] = Klebsiella pneumoniae, individual compound, Klebsiella pneumoniae CCPM(A)-0814R18, read-out: MIC
# [18] = Klebsiella pneumoniae, individual compound, Klebsiella pneumoniae CCPM(A)-0814R33, read-out: MIC
# [19] = Klebsiella pneumoniae, individual compound, Klebsiella pneumoniae CCPM(A)-081301, read-out: MIC
# [20] = Klebsiella pneumoniae, individual compound, Klebsiella pneumoniae CCPM(A)-081715, read-out: MIC
# [21] = Klebsiella pneumoniae, individual compound, Klebsiella pneumoniae CCPM(A)-081716, read-out: MIC
# [22] = ATCC2469, individual compound, Escherichia coli ATCC 2469, read-out: MIC
# [23] = individual compound, Escherichia coli CCPM(A)-P-071301, read-out: MIC
# [24] = ATCC2468, individual compound, Enterobacter cloacae ATCC 2468, read-out: MIC
compound,measurement,setting,value
"COc1ccc2cc3[n+](cc2c1OC)CCc1cc2c(cc1-3)OCO2 [Berberine, berberine]",MIC,"Pseudomonas aeruginosa [1]; individual compound, Pseudomonas aeruginosa ATCC27853, read-out: MIC",> 1020 µg/mL
same,MIC,"Pseudomonas aeruginosa [1]; individual compound, Pseudomonas aeruginosa CCPM(A)-P-091626(CRPA), read-out: MIC",> 1020 µg/mL
same,MIC,Pseudomonas aeruginosa [1]; [12],> 1020 µg/mL
same,MIC,Acinetobacter baumannii [2]; [13],> 1020 µg/mL
same,MIC,Acinetobacter baumannii [2]; [14],> 1020 µg/mL
same,MIC,"Acinetobacter baumannii [2]; individual compound, Acinetobacter baumannii CCPM(A)-P-101633(CRAB), read-out: MIC",> 1020 µg/mL
same,activity of the inhibitor itself,[3],relatively weak activities
same,MIC in combination,"Acinetobacter baumannii [4]; compound of formula (I-1) combined with berberine, Acinetobacter baumannii ATCC 19606",32 µg/mL
same,MIC in combination,"Acinetobacter baumannii [4]; compound of formula (I-1) combined with berberine, Acinetobacter baumannii CCPM(A)-P-101633(CRAB)",>0.5 µg/mL
CC1(C)[C@H](NC(=O)/C(=N\OC2(C(=O)O)CCC2)c2csc(N)n2)C(=O)N1OS(=O)(=O)O [Compound of formula (I-2)],change of MIC values on combination,[5],significantly reduced
same,MIC,Klebsiella pneumoniae [6]; [15],2 µg/mL
same,MIC,Klebsiella pneumoniae [6]; [16],2 µg/mL
same,MIC,Klebsiella pneumoniae [6]; [17],2 µg/mL
same,MIC,Klebsiella pneumoniae [6]; [18],2 µg/mL
same,MIC,"Klebsiella pneumoniae [6]; Klebsiella pneumoniae, individual compound, Klebsiella pneumoniae CCPM(A)-0817R61, read-out: MIC",32 µg/mL
same,MIC,Klebsiella pneumoniae [6]; [19],2 µg/mL
same,MIC,"Klebsiella pneumoniae [6]; Klebsiella pneumoniae, individual compound, Klebsiella pneumoniae CCPM(A)-081705, read-out: MIC",2 µg/mL
same,MIC,Klebsiella pneumoniae [6]; [20],1 µg/mL
same,MIC,Klebsiella pneumoniae [6]; [21],32 µg/mL
same,MIC,"Klebsiella pneumoniae [6]; Klebsiella pneumoniae, individual compound, Klebsiella pneumoniae CCPM(A)-081729, read-out: MIC",1 µg/mL
same,MIC,Escherichia coli [7]; [22],1 µg/mL
same,MIC,Escherichia coli [7]; [23],1 µg/mL
same,MIC,Enterobacter cloacae; [24],2 µg/mL
same,MIC in combination,"Klebsiella pneumoniae [8]; compound of formula (I-2) combined with avibactam, Klebsiella pneumoniae ATCC 2146",0.5 µg/mL
same,MIC in combination,"Klebsiella pneumoniae [8]; compound of formula (I-2) combined with avibactam, Klebsiella pneumoniae ATCC 700603",0.5 µg/mL
same,MIC in combination,"Klebsiella pneumoniae [8]; compound of formula (I-2) combined with avibactam, Klebsiella pneumoniae CCPM(A)-081715",0.5 µg/mL
same,MIC in combination,"Klebsiella pneumoniae [8]; compound of formula (I-2) combined with avibactam, Klebsiella pneumoniae CCPM(A)-081729",0.5 µg/mL
"C[C@H]1[C@H]2CC[C@H]3[C@@H]4CC=C5C[C@@H](N(C)C)CC[C@]5(C)[C@H]4CC[C@]23CN1C [Conessine, conessine]",MIC,Pseudomonas aeruginosa [1]; [12],> 256 µg/mL
same,MIC,Acinetobacter baumannii [2]; [14],> 256 µg/mL
same,activity of the inhibitor itself,[3],relatively weak activities
same,MIC in combination,"Pseudomonas aeruginosa [9]; compound of formula (I-1) combined with conessine, Pseudomonas aeruginosa PAO1(CCPM(A)-P-09000032)",>256 µg/mL
same,MIC in combination,"Acinetobacter baumannii [4]; compound of formula (I-1) combined with conessine, Acinetobacter baumannii ATCC 19606",4 µg/mL
"N=C(N)NCCC[C@H](NC(=O)[C@@H](N)Cc1ccccc1)C(=O)Nc1ccc2ccccc2c1 [PAβN, PaβN] (H-Phe-Arg-βNA)",MIC,Pseudomonas aeruginosa [1]; Pseudomonas aeruginosa,> 256 µg/mL
same,MIC,"Pseudomonas aeruginosa [1]; Pseudomonas aeruginosa, ATCC27853",> 256 µg/mL
same,MIC,"Pseudomonas aeruginosa [1]; Pseudomonas aeruginosa, PAO1",> 256 µg/mL
same,MIC,Acinetobacter baumannii [2]; [13],> 256 µg/mL
same,MIC,Acinetobacter baumannii [2]; [14],> 256 µg/mL
same,MIC,Acinetobacter baumannii [2]; Acinetobacter baumannii,> 256 µg/mL
same,activity of the inhibitor itself,[3],relatively weak activities
same,MIC in combination,"Pseudomonas aeruginosa [9]; compound of formula (I-1) combined with PAβN, Pseudomonas aeruginosa ATCC27853",64 µg/mL
same,MIC in combination,"Pseudomonas aeruginosa [9]; compound of formula (I-1) combined with PAβN, Pseudomonas aeruginosa CCPM(A)-P-091626(CRPA)",128 µg/mL
same,MIC in combination,"Pseudomonas aeruginosa [9]; compound of formula (I-1) combined with PAβN, Pseudomonas aeruginosa PAO1(CCPM(A)-P-09000032)",64 µg/mL
same,MIC in combination,"Acinetobacter baumannii [4]; compound of formula (I-1) combined with PAβN, Acinetobacter baumannii CCPM(A)-P-101633(CRAB)",>0.5 µg/mL
"O=C(NC1CCNCC1)[C@@H]1CC[C@@H]2CN1C(=O)N2OS(=O)(=O)O [Relebactam, relebactam]",MIC,Klebsiella pneumoniae [6]; [15],64 µg/mL
same,MIC,Klebsiella pneumoniae [6]; [16],64 µg/mL
same,MIC,Klebsiella pneumoniae [6]; [17],64 µg/mL
same,MIC,Klebsiella pneumoniae [6]; [18],64 µg/mL
same,MIC,Klebsiella pneumoniae [6]; [19],> 128 µg/mL
same,MIC,Klebsiella pneumoniae [6]; [20],64 µg/mL
same,MIC,Klebsiella pneumoniae [6]; [21],128 µg/mL
same,MIC,Escherichia coli [7]; [22],64 µg/mL
same,MIC,Escherichia coli [7]; [23],64 µg/mL
same,MIC,Enterobacter cloacae; [24],128 µg/mL
same,MIC,"Enterobacter cloacae; individual compound, Enterobacter cloacae CCPM(A)-P-111719, read-out: MIC",128 µg/mL
same,activity of the inhibitor itself,[10],relatively weak activities
same,MIC in combination,"Klebsiella pneumoniae [8]; compound of formula (I-1) combined with relebactam, Klebsiella pneumoniae ATCC 2146",0.5 µg/mL
same,MIC in combination,"Klebsiella pneumoniae [8]; compound of formula (I-1) combined with relebactam, Klebsiella pneumoniae ATCC 700603",8 µg/mL
"O=C(O)C[C@@H]1CC[C@H](NC(=O)Cc2cccs2)B(O)O1 [Vaborbactam, vaborbactam]",MIC,Klebsiella pneumoniae [6]; Klebsiella pneumoniae,> 128 µg/mL
same,MIC,"Klebsiella pneumoniae [6]; Klebsiella pneumoniae, ATCC2146",> 128 µg/mL
same,MIC,"Klebsiella pneumoniae [6]; Klebsiella pneumoniae, ATCC700603",> 128 µg/mL
same,MIC,"Klebsiella pneumoniae [6]; individual compound, Klebsiella pneumoniae CCPM(A)-0814R33",>128 µg/mL
same,MIC,"Klebsiella pneumoniae [6]; individual compound, Klebsiella pneumoniae CCPM(A)-081301",>128 µg/mL
same,MIC,"Klebsiella pneumoniae [6]; individual compound, Klebsiella pneumoniae CCPM(A)-081715",>128 µg/mL
same,MIC,"Klebsiella pneumoniae [6]; individual compound, Klebsiella pneumoniae CCPM(A)-081716",>128 µg/mL
same,MIC,Escherichia coli [7]; Escherichia coli,> 128 µg/mL
same,MIC,"Escherichia coli [7]; Escherichia coli, ATCC2469",> 128 µg/mL
same,MIC,Enterobacter cloacae; Enterobacter cloacae,> 128 µg/mL
same,MIC,"Enterobacter cloacae; Enterobacter cloacae, ATCC2468",> 128 µg/mL
same,activity of the inhibitor itself,[10],relatively weak activities
same,MIC in combination,"Klebsiella pneumoniae [8]; compound of formula (I-1) combined with vaborbactam, Klebsiella pneumoniae ATCC 700603",8 µg/mL
same,MIC in combination,"Klebsiella pneumoniae [8]; compound of formula (I-1) combined with vaborbactam, Klebsiella pneumoniae CCPM(A)-0814R33",2 µg/mL
same,MIC in combination,Escherichia coli [11],0.5 µg/mL
